Assay results from US7019144B2, “1,2,4-Triazole derivative, method for preparing the same, and pharmaceutical composition containing the same” (CJ Corp., priority 2002, dated 2006).

Legend:
[1] = system: carrageenan-induced paw edema; assay: Carrageenan-induced paw edema test in rats; format: in vivo; conditions: for Inhibitory effect (% inhibition): oral administration, foot swelling 3 hours after carrageenan injection vs control; for COX inhibitory effect (paw edema % inhibition) in comparison with Celecoxib: oral, comparison in words
Method: 2. Carrageenan-induced Paw Edema Test in Rats
The day before the test date, rats were selected in each group so that the average body weight was as close as possible, and the rats were fasted by feed withdrawal prior to the test. At the test date, the rats were orally administered with the test compounds and a control material. After 1 hour, the volume (V0h) of a predetermined portion of the left hind foot of the rats was measured with a plethysmometer. 100 μl of 1% carrageenan solution was subcutaneously injected to the left hind foot of the rats using a syringe with 1 ml capacity. Three hours after the injection of the carrageenan, the volume (V3h) of the predetermined portion of the foot was again measured. The foot swelling variation […] in a group of test compound-treated rats was compared with that of a group of control material-treated rats. With the supposition of 0% inhibition by the control (control material-treated rats), the inhibition percentage of edema of each test compound was determined.

COX-1 = target: T1, COX-1 (Homo sapiens, UniProt P23219); assay: Assay for the COX-1 inhibitory activity using U-937 (PGE2 inhibition); format: cell-based; conditions: for inhibition at 1 µM: 1 μM test compound, U-937 human lymphoma cells, PGE2 inhibition vs DMSO, read-out: Cyclooxygenase (COX) Inhibition (%) COX-1 (1 μM); for COX-1 inhibitory activity in comparison with the reference (Valdecoxib): 1 μM, U-937, comparison in words
T1 construct: host or cells: U-937 human lymphoma cells
T1 sequence (P23219 24-599): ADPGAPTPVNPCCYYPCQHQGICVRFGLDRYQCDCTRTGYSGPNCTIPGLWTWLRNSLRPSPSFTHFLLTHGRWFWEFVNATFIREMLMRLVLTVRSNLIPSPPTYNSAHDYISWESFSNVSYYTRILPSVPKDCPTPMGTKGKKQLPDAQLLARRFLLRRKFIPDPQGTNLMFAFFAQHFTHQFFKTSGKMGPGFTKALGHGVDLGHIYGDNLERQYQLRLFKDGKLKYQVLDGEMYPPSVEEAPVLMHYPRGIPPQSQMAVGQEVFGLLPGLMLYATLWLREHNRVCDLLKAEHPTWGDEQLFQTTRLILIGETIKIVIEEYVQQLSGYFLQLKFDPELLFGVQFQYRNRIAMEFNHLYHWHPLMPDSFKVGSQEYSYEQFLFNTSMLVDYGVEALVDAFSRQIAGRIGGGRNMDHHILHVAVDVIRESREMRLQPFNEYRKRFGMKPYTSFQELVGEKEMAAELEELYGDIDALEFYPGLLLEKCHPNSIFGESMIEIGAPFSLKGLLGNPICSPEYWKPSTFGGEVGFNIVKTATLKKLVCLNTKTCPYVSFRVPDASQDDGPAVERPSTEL
Method: The collected cells were diluted with HBSS (×1, Hank's balanced salt solution) to a concentration of 1×10^6 cells/ml. 1 ml of the dilute cell solution was placed into each well of 12-well plates. 5 μl of 1 μM solution of a test compound in DMSO and 5 μl of DMSO as a control were added to the wells. The wells were incubated in CO2 incubator at 37° C. for 15 minutes. Separately, 10 mM stock solution of arachidonic acid in ethanol was diluted ten times in ethanol to prepare 1 mM solution of arachidonic acid. Arachidonic acid acts as a substrate. 10 μl of the 1 mM solution of arachidonic acid was added to each well and incubated at CO2 incubator at 37° C. for 30 minutes. The cell solution of each well was placed in a centrifuge test tube and centrifuged at 10,000 rpm at 4° C. for 5 minutes. The concentration of PGE2 in the collected cells and the supernatant was quantified by means of a monoclonal kit (Cayman Chemicals). The percentages of PGE2 inhibition in a group of the test compound-treated cells in relation to a group of the DMSO-treated cells were calculated. Based on the calculated values, the COX-1 inhibitory activities were evaluated.
(§1) The percentages of the COX inhibition were calculated according to the following equation: % Inhibition=(concentration of PGE2 in test compound-untreated sample−concentration of PGE2 in test compound-treated sample)/(concentration of PGE2 in test compound-untreated sample)×100

COX-2 = target: T2, COX-2 (Mus musculus, UniProt Q05769); assay: Assay for the COX-2 inhibitory activity using RAW 264.7 cell line (PGE2, interferon γ/LPS induced); format: cell-based; conditions: for COX-2 inhibitory activity in comparison with the reference (Valdecoxib): 10 nM, RAW 264.7, comparison in words; for inhibition at 0.01 µM: RAW264.7, 10 nM test compound, RAW 264.7 cells, interferon γ + LPS, 18 hours, PGE2, read-out: Cyclooxygenase (COX) Inhibition (%) COX-2 (10 nM); for selectivity (COX-2 over COX-1): judged from Table 1, in words
T2 construct: host or cells: RAW 264.7 cells, aspirin-pretreated, then induced with interferon gamma and LPS
T2 sequence (Q05769 18-604): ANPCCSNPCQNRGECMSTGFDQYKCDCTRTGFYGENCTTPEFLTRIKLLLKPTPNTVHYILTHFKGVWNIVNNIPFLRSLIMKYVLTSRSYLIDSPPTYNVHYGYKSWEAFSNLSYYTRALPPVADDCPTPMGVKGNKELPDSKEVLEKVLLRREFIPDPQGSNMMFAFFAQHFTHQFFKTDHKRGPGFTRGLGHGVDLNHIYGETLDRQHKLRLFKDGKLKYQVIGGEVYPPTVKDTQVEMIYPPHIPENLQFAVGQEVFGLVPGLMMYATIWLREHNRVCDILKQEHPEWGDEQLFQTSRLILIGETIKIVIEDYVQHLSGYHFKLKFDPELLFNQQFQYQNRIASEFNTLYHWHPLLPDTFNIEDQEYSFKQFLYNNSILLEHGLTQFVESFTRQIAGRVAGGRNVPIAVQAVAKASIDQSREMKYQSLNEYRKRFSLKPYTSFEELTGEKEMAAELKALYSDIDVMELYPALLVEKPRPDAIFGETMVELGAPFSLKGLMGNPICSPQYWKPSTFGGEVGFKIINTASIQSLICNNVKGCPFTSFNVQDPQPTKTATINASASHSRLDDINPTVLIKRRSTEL
Method: Each well was treated with 250 μM of aspirin and incubated at 37° C. for 2 hours. […] Then, each well was treated with interferon γ (100 units/ml) and Iipopolysaccharide (LPS, 100 ng/ml) and incubated for 18 hours. The culture media were transferred to another test tubes. The concentration of PGE2 was quantified by means of the EIA kit (Cayman Chemicals).
as §1

inhibition at 1 µM (COX-1) [%]	COX-1 inhibitory activity in comparison with the reference (Valdecoxib) (COX-1)	COX-2 inhibitory activity in comparison with the reference (Valdecoxib) (COX-2)	inhibition at 0.01 µM (COX-2) [%]	selectivity (COX-2 over COX-1) (COX-2)	SMILES	Inhibitory effect (% inhibition) [1] [% inhibition]	COX inhibitory effect (paw edema % inhibition) in comparison with Celecoxib [1]
11.8	the same as or lower	remarkably enhanced	38.6	excellent selectivities	CCOc1ccc(-c2nc(C(F)(F)F)nn2-c2ccc(S(C)(=O)=O)cc2)cc1 [Example 35, 5-(4-ethoxyphenyl)-1-(4-methanesulfonylphenyl)-3-trifluoromethyl-1H-[1,2,4]triazole]	32.3	remarkably improved
23.1	the same as or lower	remarkably enhanced	29.9	excellent selectivities	NS(=O)(=O)c1ccc(-n2nc(C(F)(F)F)nc2-c2ccc(Br)cc2)cc1 [Example 44, 4-[5-(4-bromophenyl)-3-trifluoromethyl-[1,2,4]triazol-1-yl]benzene sulfonamide]	28.8	remarkably improved
34.6	–	–	32.3	–	COc1ccc(-c2nc(C(F)(F)F)nn2-c2ccc(S(N)(=O)=O)cc2)cc1 [Example 43, 4-[5-(4-methoxyphenyl)-3-trifluoromethyl-[1,2,4]triazol-1-yl]benzene suffonamide]	39.1	remarkably improved
13.8	–	–	16	–	CS(=O)(=O)c1ccc(-n2nc(C(F)(F)F)nc2-c2ccc(Br)cc2)cc1 [Example 27, 5-(4-bromophenyl)-1-(4-methanesulfonylphenyl)-3-trifluoromethyl-1H-[1,2,4]triazole]	21.7	–
23.5	–	–	26.8	–	COc1ccc(/C=C/c2nc(C(F)(F)F)nn2-c2ccc(S(C)(=O)=O)cc2)cc1 [Example 34, 5-[2-(4-methoxyphenyl)vinyl]-1-(4-methanesulfonylphenyl)-3-trifluoromethyl-1H-[1,2,4]triazole]	19.3	–
